Patent US20180044672A1, “Pericyte Long Non-Coding RNAs” (Johann Wolfgang Goethe-Universität Frankfurt am Main, priority 2015, published 2018)
“Also recorded” adds a separate entry of the source.

Key:
human pericytes (PC) = assay: PC viability by MTT assay
[1] = PC viability by MTT assay; details: human
PDGFRβ [2] = assay: PDGFRβ expression in human pericytes by qPCR and immunoblotting; type: cell-based; details: for PDGFRβ mRNA (qPCR) / PDGFRβ protein levels (immunoblotting): upon TYKRIL silencing by LNA GapmeRs
Protocol: (§1) Cells were grown to 60-80% confluency and were transfected for 4 hours in Optimem Medium using Lipfectamine (both from Life technologies, Carlsbad, Calif., USA) with 50 nmol/l LNA GapmeR (Exiqon, Vedbaek, Denmarkt) according to the manufacturer's instructions. Controls were transfected with scrambled LNA GapmeR control. Four hours after LNA Gapmer Transfection, Optimem Medium was exchanged with normal cell culture medium. All experimental manipulations were carried out 48 hours after transfection.
(§2) Total RNA from PC was isolated using RNeasy Mini Kits (Qiagen, Hilden, Germany) as recommended by the manufacturer including a DNA digestion step. Nuclear and cytosolic fractions were prepared as documented elsewhere 34. 500-1000 ng RNA was reversely transcribed with random hexamer primers (ThermoScientific, Waltham, USA) by MulV reverse transcriptase (Lifetechnologies) in 40 μl reaction volume. Fast SYBR green or SYBR green (Applied Biosystems, Forster City, USA) and cDNA were used for qRT-PCR. A Viia7 or StepOnePlus from Applied Biosystems was used. CT values were normalized against ribosomal RPLP0. Relative gene expression levels were determined by the formula: 2-deltaCT; deltaCT=CTtarget−CTcontrol.
Standard immunofluorescent staining procedures were carried out as described before 35-37. In brief, cells were washed with PBS, fixed in ice cold acetone for about 5 minutes. After washing cells were blocked for 2 hours at room temperature with 5% donkey serum (Dianova, Hambur, Germany), 0.3% Triton X-100 in PBS. Primary antibodies were incubated overnight in PBS containing 2% BSA, 0.1% Triton X-100. Secondary antibodies and Hoechst (Lifetechnologies, 1/1000) were incubated in 2% BSA, 0.1% azide for another 2 hours. For SDS Page protein isolation cells were washed once with ice-cold PBS, snap frozen in liquid nitrogen and RIPA-buffer (Thermo Scientific, Rockford, USA) supplemented with protease inhibitor (Roche Diagnostics) was applied. Cells were then scraped off with an ice cold rubber policeman and incubated for 45 minutes on ice under agitation. Subsequently probes were centrifuged for 10 minutes at 5000 RPM at 4° C. The supernatant was transferred into ice cold vials and protein concentration was determined by performing a Bradford assay with RotiQuant (Carl Roth, Karlsruhe, Germany) according to the manufacturer's instructions. Protein samples were mixed with an equal volume of 2× Laemmli buffer (Sigma Aldrich). Gels (Mini-Protean TGX, BioRad) were loaded with 20-30 μg protein per lane. SDS page was performed for 1 hour at 100V in […] (BioRad). Western Blotting was performed using a Pierce G2 Fast Blotter according to the manufacturer's instructions (ThermoScientific).

TYKRIL = TYKRIL expression in human pericytes by qRT-PCR; type: cell-based; details: for TYKRIL expression levels in PC: LNA GapmeR 50 nmol/l, 48 h after transfection, vs scrambled control
Protocol: as §1, §2

human pericytes = assay: RNA Seq upon TYKRIL knockdown in pericytes; type: cell-based; details: upon TYKRIL knockdown with LNA GapmeRs
Protocol: RNA deep sequencing was performed by analyzing ribosomal depleted total RNA from human Pericytes. RNA was isolated using a RNeasy Mini Kit (Qiagen) according to the manufacturer's instructions including DNA digestion. Subsequently RNA was fragmented and primed for cDNA synthesis. Libraries were created using a TruSeq RNA Ribo-Zero Globin kit (from Illumina) as recommended by the manufacturer. A Illumina HiSeq 2000 flowcell was used for sequencing. lncRNA annotation was done based on the NONCODE database (noncode.org).

mTYKRIL = assay: Murine TYKRIL knockdown in vivo, mTYKRIL in organs; set-up: species or system mouse; details: mice, 20 mg/kg intraperitoneally, single shot, 48 h
Protocol: (§3) HPLC purified. LNA GapmeRs were injected intraperitoneally at a dosage of 20 mg/kg bodyweight. 48 hours after injection, mice were sacrificed by isoflurane overdose and cardially perfused with PBS at a steady flow of 9 ml/min. Subsequently organs were removed and snap forzen for RNA and protein isolation.

PDGFRβ [3] = assay: Murine TYKRIL knockdown in vivo, PDGFRβ in organs; set-up: species or system mouse; details: mice, 20 mg/kg intraperitoneally, single shot, 48 h
Protocol: as §3

[4] = p53 gain of function by doxorubicin treatment

## Cc1ccc(NC(=O)c2ccc(CN3CCN(C)CC3)cc2)cc1Nc1nccc(-c2cccnc2)n1 [Imatinib]
Human pericytes (PC); imatinib 1 μM, 24 h, compared with solvent PBS
  PC viability (MTT), in words: significantly decreased PC viability
Human pericytes (PC); imatinib upon TYKRIL silencing, compared with scramble control transfected PC
  PC viability (MTT), in words: significantly more reduced
[1]; human pericytes (PC)
  cytotoxicity at 24 h, 1 μM: ~20%
[1]; human pericytes (PC) with TYKRIL silenced by LNA GapmeR
  cytotoxicity: ~45%

## COc1cccc2c1C(=O)c1c(O)c3c(c(O)c1C2=O)C[C@@](O)(C(=O)CO)C[C@@H]3O[C@H]1C[C@H](N)[C@H](O)[C@H](C)O1 [doxorubicin, reference compound]
PDGFRβ [2]; [4]
  PDGFRβ on RNA level: downregulation of PDGFRβ; also recorded: significant decline
  PDGFRβ on protein level: downregulation of PDGFRβ; also recorded: significant decline
TYKRIL; [4]
  TYKRIL expression: loss of TYKRIL; also recorded: downregulation

## LNA#1: LNA GapmeR against human TYKRIL, 5′-3′: AGAGGTGATTAAGGT (LNA gapmer: LNA flanks around DNA gap, pattern and linkages not given here)
Human pericytes
  Pericyte differentiation state by RNA Seq: de-differentiation of Pericytes
PDGFRβ [2]
  PDGFRβ mRNA (qPCR): loss of PDGFRβ
  PDGFRβ protein levels (immunoblotting): loss of PDGFRβ
TYKRIL
  TYKRIL expression levels in PC: significant reduction of TYKRIL

## LNA#3: LNA GapmeR against human TYKRIL, 5′-3′: AGTGAAGGACAGAGGC (LNA gapmer: LNA flanks around DNA gap, pattern and linkages not given here)
Human pericytes
  Pericyte differentiation state by RNA Seq: de-differentiation of Pericytes
PDGFRβ [2]
  PDGFRβ mRNA (qPCR): loss of PDGFRβ
  PDGFRβ protein levels (immunoblotting): loss of PDGFRβ
TYKRIL
  TYKRIL expression levels in PC: significant reduction of TYKRIL

## mLNA#4: murine TYKRIL LNA Gapmer, SEQ ID NO: 12, GTCTGCACTTAATTAA (LNA gapmer, pattern and linkages not given here; listed as Mus musculus)
mTYKRIL
  mTYKRIL (qPCR) in heart: downregulation
mTYKRIL; 20 mg/kg
  mTYKRIL in kidneys: decreased; also recorded: downregulation
  mTYKRIL in liver: decreased; also recorded: downregulation
  mTYKRIL in lungs: decreased; also recorded: downregulation
  mTYKRIL in spleen: decreased; also recorded: downregulation
PDGFRβ [3]
  PDGFRβ (qPCR) in heart: downregulation
  PDGFRβ protein level in heart: PDGFRβ loss
PDGFRβ [3]; 20 mg/kg
  PDGFRβ in kidneys: decreased; also recorded: downregulation
  PDGFRβ in liver: decreased; also recorded: downregulation
  PDGFRβ in lungs: decreased; also recorded: downregulation
  PDGFRβ in spleen: decreased; also recorded: downregulation
